Measurements published in patent US12466822B2, “Heterocyclic compounds as immunomodulators” (Incyte Corporation, priority 2016, dated 2025).

Target: T1, PD-1/PD-L1 protein/protein interaction (recombinant human PD-L1 protein (19-238), recombinant human PD-1 protein (25-167)) (Homo sapiens, UniProt Q9NZQ7)
T1 construct: Recombinant human PD-L1 protein (19-238) with a His-tag at the C-terminus; purchased AcroBiosystems PD1-H5229 (PD-L1-His); PD1-H5257 (PD-1-Fc)
Assay: PD-1/PD-L1 Homogeneous Time-Resolved Fluorescence (HTRF) Binding Assay
Settings: 25° C., PBS buffer (pH 7.4), 40 minutes preincubation with inhibitors
Summary of the method: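 HTRF read-out (665/620 nm) after 60 min at 25 °C with 1 nM Eu anti-human IgG and 20 nM APC anti-His. Beforehand, inhibitors were preincubated 40 min with Fc-PD-1 (25-167, […] as listed) and His-PD-L1 (19-238, 10 nM) in PBS pH 7.4 with Tween-20, BSA, 1% DMSO; IC50 from log-concentration curve.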

T1 sequence (Q9NZQ7 19-238): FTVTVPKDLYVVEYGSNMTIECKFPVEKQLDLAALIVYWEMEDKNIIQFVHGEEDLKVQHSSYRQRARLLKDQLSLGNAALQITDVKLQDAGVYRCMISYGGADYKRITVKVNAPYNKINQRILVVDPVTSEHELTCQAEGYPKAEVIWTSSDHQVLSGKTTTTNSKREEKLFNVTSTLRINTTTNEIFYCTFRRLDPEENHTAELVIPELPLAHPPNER

Structure (SMILES) | IC50 [nM]
Cc1c(Nc2nccc3cc(CN4CC[C@@H](C(=O)O)C4)cnc23)cccc1-c1cccc(-c2nc3c(s2)CN(C(=O)CN(C)C)C3)c1C [Example 85, (R)-1-((8-((3′-(5-(dimethylglycyl)-5,6-dihydro-4H-pyrrolo[3,4-d]thiazol-2-yl)-2,2′-dimethyl-[1,1′-biphenyl]-3-yl)amino)-1,7-naphthyridin-3-yl)methyl)pyrrolidine-3-carboxylic acid] | ≤ 10
Cc1c(Nc2nccc3cc(CN4CC[C@@H](O)C4)cnc23)cccc1-c1cccc(-c2nc3c(s2)CN(C(=O)CN2CC[C@@H](O)C2)C3)c1C [Example 86, 2-((R)-3-hydroxypyrrolidin-1-yl)-1-(2-(3′-((3-(((R)-3-hydroxypyrrolidin-1-yl)methyl)-1,7-naphthyridin-8-yl)amino)-2,2′-dimethyl-[1,1′-biphenyl]-3-yl)-4,6-dihydro-5H-pyrrolo[3,4-d]thiazol-5-yl)ethan-1-one] | ≤ 10
Cc1c(Nc2nccc3cc(CN4CC[C@@](C)(C(=O)O)C4)cnc23)cccc1-c1cccc(-c2nc3c(s2)CN(C(=O)CN(C)C)C3)c1C [Example 87, (R)-1-((8-((3′-(5-(dimethylglycyl)-5,6-dihydro-4H-pyrrolo[3,4-d]thiazol-2-yl)-2,2′-dimethyl-[1,1′-biphenyl]-3-yl)amino)-1,7-naphthyridin-3-yl)methyl)-3-methylpyrrolidine-3-carboxylic acid] | ≤ 10
Cc1c(Nc2nccc3cc(CN4CC(C(=O)O)C4)cnc23)cccc1-c1cccc(-c2nc3c(s2)CN(C(=O)CN(C)C)C3)c1C [Example 88, 1-((8-((3′-(5-(dimethylglycyl)-5,6-dihydro-4H-pyrrolo[3,4-d]thiazol-2-yl)-2,2′-dimethyl-[1,1′-biphenyl]-3-yl)amino)-1,7-naphthyridin-3-yl)methyl)azetidine-3-carboxylic acid] | ≤ 10
Cc1c(-c2nc3c(s2)CN(C(=O)CN(C)C)C3)cccc1-c1cccc(Nc2nccc3cc(CN4CC[C@@H](C(=O)O)C4)cnc23)c1Cl [Example 89, (R)-1-((8-((2-chloro-3′-(5-(dimethylglycyl)-5,6-dihydro-4H-pyrrolo[3,4-d]thiazol-2-yl)-2′-methyl-[1,1′-biphenyl]-3-yl)amino)-1,7-naphthyridin-3-yl)methyl)pyrrolidine-3-carboxylic acid] | ≤ 10
CCN(C)CC(=O)N1Cc2nc(-c3cccc(-c4cccc(Nc5nccc6cc(CN7CC[C@@H](C(=O)O)C7)cnc56)c4Cl)c3C)sc2C1 [Example 90, (R)-1-((8-((2-chloro-3′-(5-(N-ethyl-N-methylglycyl)-5,6-dihydro-4H-pyrrolo[3,4-d]thiazol-2-yl)-2′-methyl-[1,1′-biphenyl]-3-yl)amino)-1,7-naphthyridin-3-yl)methyl)pyrrolidine-3-carboxylic acid] | ≤ 10
Cc1c(-c2nc3c(s2)CN(C(=O)CN(C)C)C3)cccc1-c1cccc(Nc2nccc3cc(CN4CC[C@H](CC(=O)O)C4)cnc23)c1Cl [Example 91, (R)-2-(1-((8-((2-chloro-3′-(5-(dimethylglycyl)-5,6-dihydro-4H-pyrrolo[3,4-d]thiazol-2-yl)-2′-methyl-[1,1′-biphenyl]-3-yl)amino)-1,7-naphthyridin-3-yl)methyl)pyrrolidin-3-yl)acetic acid] | ≤ 10
Cc1c(-c2nc3c(s2)CN(C(=O)CN(C)C)C3)cccc1-c1cccc(Nc2nccc3cc(CN4CC5CC4CC5C(=O)O)cnc23)c1Cl (stereo not drawn) [Example 92, 2-((8-((2-chloro-3′-(5-(dimethylglycyl)-5,6-dihydro-4H-pyrrolo[3,4-d]thiazol-2-yl)-2′-methyl-[1,1′-biphenyl]-3-yl)amino)-1,7-naphthyridin-3-yl)methyl)-2-azabicyclo[2.2.1]heptane-5-carboxylic acid] | ≤ 10
CCN(C)CC(=O)N1Cc2nc(-c3cccc(-c4cccc(Nc5nccc6cc(CN7CC[C@H](CC(=O)O)C7)cnc56)c4Cl)c3C)sc2C1 [Example 93, (R)-2-(1-((8-(2-chloro-3′-(5-(2-(ethyl(methyl)amino)acetyl)-5,6-dihydro-4H-pyrrolo[3,4-d]thiazol-2-yl)-2′-methylbiphenyl-3-ylamino)-1,7-naphthyridin-3-yl)methyl)pyrrolidin-3-yl)acetic acid] | 10 to 100

The next lines start with the values.

IC50 [nM] | Structure (SMILES)
≤ 10 | CCN(C)CC(=O)N1Cc2nc(-c3cccc(-c4cccc(Nc5nccc6cc(CN7CC8CC7CC8C(=O)O)cnc56)c4Cl)c3C)sc2C1 (stereo not drawn) [Example 94, 2-((8-(2-chloro-3′-(5-(2-(ethyl(methyl)amino)acetyl)-5,6-dihydro-4H-pyrrolo[3,4-d]thiazol-2-yl)-2′-methylbiphenyl-3-ylamino)-1,7-naphthyridin-3-yl)methyl)-2-azabicyclo[2.2.1]heptane-5-carboxylic acid]
≤ 10 | Cc1c(-c2nc3c(s2)CN(C(=O)CN2CC[C@@H](O)C2)C3)cccc1-c1cccc(Nc2nccc3cc(CN4CC[C@@H](C(=O)O)C4)cnc23)c1Cl [Example 95, (R)-1-((8-((2-chloro-3′-(5-(2-((R)-3-hydroxypyrrolidin-1-yl)acetyl)-5,6-dihydro-4H-pyrrolo[3,4-d]thiazol-2-yl)-2′-methyl-[1,1′-biphenyl]-3-yl)amino)-1,7-naphthyridin-3-yl)methyl)pyrrolidine-3-carboxylic acid]
≤ 10 | Cc1c(-c2nc3c(s2)CN(C(=O)CN(C)CCO)C3)cccc1-c1cccc(Nc2nccc3cc(CN4CC[C@@H](C(=O)O)C4)cnc23)c1Cl [Example 96, (R)-1-((8-((2-chloro-3′-(5-(N-(2-hydroxyethyl)-N-methylglycyl)-5,6-dihydro-4H-pyrrolo[3,4-d]thiazol-2-yl)-2′-methyl-[1,1′-biphenyl]-3-yl)amino)-1,7-naphthyridin-3-yl)methyl)pyrrolidine-3-carboxylic acid]
≤ 10 | Cc1c(-c2nc3c(s2)CN(C(=O)CN2CC[C@H](O)C2)C3)cccc1-c1cccc(Nc2nccc3cc(CN4CC[C@@H](C(=O)O)C4)cnc23)c1Cl [Example 97, (R)-1-((8-((2-chloro-3′-(5-(2-((S)-3-hydroxypyrrolidin-1-yl)acetyl)-5,6-dihydro-4H-pyrrolo[3,4-d]thiazol-2-yl)-2′-methyl-[1,1′-biphenyl]-3-yl)amino)-1,7-naphthyridin-3-yl)methyl)pyrrolidine-3-carboxylic acid]
≤ 10 | Cc1c(-c2nc3c(s2)CN(C(=O)CN2CC(O)C2)C3)cccc1-c1cccc(Nc2nccc3cc(CN4CC[C@@H](C(=O)O)C4)cnc23)c1Cl [Example 98, (R)-1-((8-((2-chloro-3′-(5-(2-(3-hydroxyazetidin-1-yl)acetyl)-5,6-dihydro-4H-pyrrolo[3,4-d]thiazol-2-yl)-2′-methyl-[1,1′-biphenyl]-3-yl)amino)-1,7-naphthyridin-3-yl)methyl)pyrrolidine-3-carboxylic acid]
≤ 10 | Cc1c(NC(=O)c2nc3c(n2C)CCN(C[C@H]2CC[C@@H](C(=O)O)CC2)C3)cccc1-c1cccc(Nc2nccc3cc(CN4CC[C@@H](O)C4)cnc23)c1C [Example 99, Cis-4-((2-(3′-(3-(((R)-3-hydroxypyrrolidin-1-yl)methyl)-1,7-naphthyridin-8-ylamino)-2,2′-dimethylbiphenyl-3-ylcarbamoyl)-1-methyl-6,7-dihydro-1H-imidazo[4,5-c]pyridin-5(4H)-yl)methyl)cyclohexanecarboxylic acid]
